Assay results reported in article PMC11999280, “Design and screening of novel endosomal escape compounds that enhance functional delivery of oligonucleotides in vitro” (Molecular Therapy. Nucleic Acids, 2025).

Key:
[1] = test system: HeLa_Luc705 cells (pLuc/705 splice-switching reporter); assay: Functional 705-SSO delivery, luciferase splice-switching assay; type: cell-based; conditions: for Luciferase expression compared to reference: HeLa-Luc705 + 1 µM SSO, mean from >3 independent experiments
Method in brief: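 Splice correction was measured as firefly luciferase luminescence in Triton X-100 lysates taken 24 h after enhancer treatment. Before treatment, the 10,000 cells/well had spent 24 h with 1–2 μM 705-SSO (2′-OMe, phosphorothioate). For comparison, 100–200 nM SSO was lipofected with LF2000.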

[2] = test system: PPIB mRNA in primary human hepatocytes; assay: PPIB siRNA knockdown, qPCR; type: cell-based; conditions: EEE32 at 2 μM with GalNAc-siPPIB
Protocol: Studies of siRNA knockdown therapeutics were performed in primary human hepatocytes using EEE32-mediated enhancement. We aimed to target peptidylpropyl isomerase B (PPIB) mRNA by using siRNA (siPPIB) either alone or together with the EEE32 and comparing them with GalNAc-conjugated siRNA (GalNAc-siPPIB), which is considered a potent human liver uptake enhancer.[30] […] However, the use of EEE32 at a 2-μM concentration enhanced GalNAc-siPPIB activity, improving the knockdown capacity by approximately 10-fold (Figure 5B, top). Additionally, no significant differences indicating compromised cell viability were observed when measuring systematic decreases in RNA yield from both groups (Figure 5B, bottom).
Human primary hepatocytes obtained from a commercial supplier (QNT lot, BioIVT) were cultured in rat tail collagen I-coated 96-well plates (Corning, catalog no. 354407) using William’s E Medium (A1217601,Thermo Fisher) supplemented with thawing and plating supplements (Thermo Fisher, catalog no. CM3000) (day 0). […]

In the case of `COc1nn(C2CCNC(C)(C)C2)cc1Nc1ncc(F)c(-n2ccc3c(C#N)cccc32)n1` (stereo not shown) [EEE32], the “Luciferase expression compared to reference” value ([1]; EEE 0.5 µM) is reported as 3.743, the “Luciferase expression compared to reference” value ([1]; EEE 2 µM) is reported as 115.294 and the “Luciferase expression compared to reference” value ([1]; EEE 4 µM) is reported as 111.401. The “Luciferase expression compared to reference” value ([1]; EEE 5 µM) was 66.337, the “Splice-switching with 24-h SSO pre-incubation relative to SSO co-treatment” value ([1]; dose response, luciferase readout at time points after EEE addition) was “around 17 times” and the Splice-switching enhancement ([1]; using 2–2.5 μM EEE) was “above 100 fold”. The “Improvement of GalNAc-siPPIB knockdown capacity” value [2] was “approximately 10 fold”.
